Results published in the NIST ThermoML archive (doi:10.1016/j.fluid.2007.08.008).
± gives the expanded uncertainty stated by the source.

Assay: refractive index (Na D-line) (dimensionless)
Settings: 298.15 K; 101.33 kPa; Liquid; Standard Abbe refractometry

SMILES	refractive index
CCCOCCC [dipropyl ether]	1.3784 ± 0.0045
CCCO [propan-1-ol]	1.3836 ± 0.004
OCCO [1,2-ethanediol]	1.4306 ± 0.004
O [water]	1.3325 ± 0.004

Assay: not given
Settings: 298.15 K; 101.33 kPa; Liquid; Vibrating tube method

SMILES	mass density [kg/m3]
CCCOCCC [dipropyl ether]	741.81 ± 13
CCCO [propan-1-ol]	799.62 ± 0.14
